Source: patent US10238631B2, “Sesquiterpene derivatives and their use in inflammation or cancer treatment” (Academia Sinica, priority 2014, dated 2019)
Values joined by “and” are separate entries in the source; they are usually repeats but may differ in a detail not shown here. Equal entries are not always repeated. Where two headings read alike, the source gives them in different places.

Tests used:
MDA-MB-231 cells [1] = tested on: MDA-MB-231 cells
Experimental: Briefly, cells (5×10^3 cells/well) were seeded in 96-well plates and treated with BSO at concentrations 100 μM, 45 μM, 18 μM, 7.2 μM, 2.8 μM, 1.15 μM, 461 nM, 184 nM, 74 nM and 29 nM, and sulfasalazine at concentrations 62.75 μM, 25.10 μM, 10 μM, 4 μM, 1.6 μM, 642 nM, 257 nM, 102 nM, 41 nM and 16.4 nM for 30 h, and then 12 μM DET or 3 μM DETD-35 were added in the cultural medium to treat the cells for another 24 h. Cell proliferation was measured by MIT assay.

[2] = tested on: MeWo (No NRAS or BRAF mutation); assay: MTT cell viability assay, MeWo melanoma; type: cell-based, human; conditions: Homo sapiens, MeWo, 24 h
How it was run: (§1)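 Viability is determined colorimetrically with MTT after a 24 h to 72 h compound treatment. Vehicle wells containing 0.5% DMSO define 100% viability, and treated OD570 values are expressed relative to them.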

[3] = tested on: melanoma cell lines B16-F10, MeWo, A375, A2058, HTB-68; assay: MTT cell viability assay, all melanoma cell lines; type: cell-based; conditions: 24 h, read-out: IC50 values over all types of melanoma cell lines
How it was run: as §1

[4] = tested on: SK-N-MC neuroepithelioma line; assay: MTT cell viability assay, SK-N-MC; type: cell-based; conditions: Homo sapiens, 24 h
Experimental: (§2) Normal or cancer cells (2×10^3 to 1×10^4 cells/well) were seeded in 96-well plate for overnight and treated with different compounds for 24 h to 72 h. Cells growth were determined by MTT-based colorimetric assays according to. Viability of the test cells treated with vehicle (0.5% DMSO) only was defined as 100% viable. Survival of cells after treatment with DETDs was calculated using the following formula: viable cell number (%)=OD570 (treated cell culture)/OD570 (vehicle control)×100.
(§3) Based on toxicity results of DET and DETDs on different breast cancer and melanoma cell lines, we selected DETD-6, -32, -35 and -39, under the consideration of structure activity relationship for evaluating their suppression effect against other cancer types of cell line with indicated tumor origin in Table 5. […] The cells were treated with compounds for 24 h and then subjected to MTT assays.

[5] = tested on: M10 normal mammary epithelial cells; assay: MTT cell viability assay, M10 normal cells; type: cell-based, human; conditions: 24 h
How it was run: (§4)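 Viability is scored colorimetrically by MTT after cells, plated at 2×10^3 to 1×10^4 per well the night before, receive compounds for 24 h to 72 h; 0.5% DMSO-treated wells define 100%.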

[6] = tested on: MDA-MB-231 (ER−, PR−, Her2−) human breast cancer cells; assay: MTT cell viability assay, MDA-MB-231 cells; type: cell-based; conditions: for IC50: Homo sapiens
How it was run: as §4

[7] = tested on: RAW264.7 (normal macrophage); assay: MTT cell viability assay, RAW264.7 macrophages; type: cell-based, mouse; conditions: Mus musculus, RAW264.7, 24 h
How it was run: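 RAW264.7 macrophages (2×10^5 cells/well) pretreated with compounds 1 h, then incubated 24 h with or without 100 ng/μL LPS. Viability by MTT colorimetric assay run in parallel with Griess nitrite measurement.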

PC3 (Prostate) = assay: MTT cell viability assay, PC3; type: cell-based; conditions: 24 h
Experimental: as §2, §3

MDA-MB-231 cells [8] = assay: Compound-drug combination assay with PTX; type: cell-based, human; conditions: 0-4 μM compound, 0-25 nM PTX
Experimental: Cell proliferation was measured by MTT assay. Isobologram analysis and Chou-Talalay method was used to determine the effects of compound drug combinations. The interaction of DETDs and PLX4032 or PTX was determined by the combination index (CI), and the CI plot was generated using CompuSyn software. The combined effects of two compounds can be categorized as follows: CI=1 indicates additive interaction, CI<1 indicates synergism, and CI>1 indicates antagonism.
To investigate whether or not DETD-35 and DETD-39 act synergistically with PTX against MDA-MB-231 cell activity, anti-proliferation assay using MTT reagent was performed to obtain the IC60 value of each compound. […] Based on the IC60 values, DETD-35 or DETD-39 ranging from 0 to 4 μM and PIX from 0 to 25 nM were used for compound-drug combination study. Classic isobologram analysis and Chou-Talalay method were conducted to investigate the synergistic effect of compound and drug. Combination index (CI) was calculated with CalcuSyn software (Version 2.0, Biosoft) and expressed as CI vs. Fa (fraction affected). CI<1 indicates synergy; CI=1 indicates additive effect; and CI>1 indicates antagonism.

[9] = tested on: LPS-induced nitric oxide (NO) production in RAW 264.7 cells; assay: Nitric oxide production in LPS-stimulated macrophages (Griess); type: cell-based, mouse
How it was run: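 RAW 264.7 macrophages (2×10^5 cells/well) were pretreated with compound for 1 h and then stimulated with 100 ng/μL LPS for 24 h. NO was measured as nitrite in the medium by the Griess reaction. Viability was checked in parallel by MTT.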

[10] = tested on: KATO III stomach cancer cell line; assay: MTT cell viability assay, KATO III; type: cell-based; conditions: Homo sapiens, 24 h
Experimental: as §2, §3

A2058 (BRAF mutation) = assay: MTT cell viability assay, A2058 melanoma; type: cell-based, human; conditions: Homo sapiens, A2058, 24 h
How it was run: as §1

[11] = tested on: NES-SA uterus cancer cell line; assay: MTT cell viability assay, NES-SA; type: cell-based; conditions: 24 h
Experimental: as §2, §3

B16-F10 (NRAS mutation) = assay: MTT cell viability assay, B16-F10 melanoma; type: cell-based; conditions: Mus musculus, B16-F10, 24 h
How it was run: as §1

[12] = tested on: PC6 lung cancer cell line; assay: MTT cell viability assay, PC6; type: cell-based; conditions: 24 h
Experimental: as §2, §3

A375 (BRAF mutation) = assay: MTT cell viability assay, A375 melanoma; type: cell-based, human; conditions: Homo sapiens, MTT
How it was run: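 A375 cells were seeded at 2×10^3 to 1×10^4 per well overnight and then exposed to compounds for 24 h to 72 h. Viability was measured by MTT absorbance at OD570 relative to 0.5% DMSO vehicle (100%), and IC50 was derived from it. Combination with PLX4032 was scored by combination index.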

[13] = tested on: U-87MG brain cancer cell line; assay: MTT cell viability assay, U-87MG; type: cell-based; conditions: Homo sapiens, 24 h
Experimental: as §2, §3

[14] = tested on: MCF-7 (ER+, Her2−) human breast cancer cells; assay: MTT cell viability assay, MCF-7 cells; type: cell-based
How it was run: as §4

[15] = tested on: TS/A (ER+, Her2−) murine mammary cancer cells; assay: MTT cell viability assay, TS/A cells; type: cell-based; conditions: Mus musculus
How it was run: as §4

U937 lymphoma line = assay: MTT cell viability assay, U937; type: cell-based; conditions: Homo sapiens, U-937, 24 h
Experimental: as §2, §3

HTB-68 (NRAS mutation) = assay: MTT cell viability assay, HTB-68 melanoma; type: cell-based, human; conditions: Homo sapiens, 24 h
How it was run: as §1

[16] = tested on: Melanocyte (Normal cells); assay: MTT cell viability assay, normal melanocytes; type: cell-based, human; conditions: Homo sapiens, Melanocyte, 24 h
How it was run: as §1

[17] = tested on: HCT-116 colon cancer cell line; assay: MTT cell viability assay, HCT-116; type: cell-based; conditions: Homo sapiens, 24 h
Experimental: as §2, §3

[18] = tested on: A498 kidney cancer cell line; assay: MTT cell viability assay, A498; type: cell-based; conditions: Homo sapiens, 24 h
Experimental: as §2, §3

[19] = tested on: A375 human melanoma tumor; assay: A375 melanoma xenograft model in NOD/SCID mice; type: in vivo, mouse; conditions: 20 mg/kg i.p.; PLX4032 every day, DET and DETD-35 every two days
Experimental: (§5) A375 and A375-R melanoma cells (3×10^6) were injected subcutaneously to the flanks of the six weeks old NOD/SCID mice. One week after the inoculation, the mice were randomized into treated groups (n=8 per group) and the treatments were started. Body weight and tumor volume of the mice were recorded every three days using formula a×b^2×0.5, where a and b represented the larger and smaller tumor diameters.
We used A375 human melanoma xenograft model to evaluate the in vivo bioefficacy of DET. DETD-35, PLX4032 and compound drug combination. […] For single compound or drug treatment group, PLX4032 was administered i.p. every day and DET and DETD-35 were administered i.p. every two days. For combination treatment, PLX4032 was administered every two days while DET and DETD-35 were administered every four days. […] Compound-drug combinational treatments were carried out with alternative administration of DET (20 mg/kg) or DETD-35 (20 mg/kg) and PLX4032 (20 mg/kg) by which DET or DETD-35 and PLX4032 treatment frequency were only half of the single compound or drug administration alone.

[20] = tested on: DMBA/TPA-induced skin papillomas accelerated by PLX4032
Experimental: Dorsal skin of six weeks old female FVB/N mice were shaved and treated with topical application of DMBA (25 μg in 100 μL acetone). One week after DMBA treatment, the same skin area were treated topically twice weekly with 12-O-tetradecanoylphorbol-13-acetate (TPA) (4 μg in 100 μL acetone). The area was regularly shaved and tumor formation was assessed twice weekly, and tumors were defined as raised lesions of a minimum diameter of 1 mm.

[21] = tested on: A375-R acquired vemurafenib resistance melanoma cells; assay: MTT cell viability assay, PLX4032-resistant A375-R; type: cell-based, human; conditions: 72 h
Experimental: A375-R, acquired vemurafenib resistance melanoma cell was generated from A375 parental cell and grown in same conditions as A375 cell.
as §2
To study the mechanisms underlying how DETD-35 overcomes acquired resistance to BRAF inhibitor, we generated A375 cell line resistant to PLX4032 (designated A375-R). Briefly, A375 melanoma cells were seeded in T75 plate and treated with ascending concentration of PLX4032 (20, 50, 100, 250, 500, 1000, 2000 nM) through approximately 2 months and 20 passages.

[22] = tested on: A375-R PLX4032-resistant melanoma tumor; assay: A375-R melanoma xenograft model in NOD/SCID mice; type: in vivo, mouse; conditions: PLX4032 75 mg/kg
Experimental: as §5
To study whether or not DETD-35 could overcome acquired resistance to BRAF inhibitor, we generated A375 cell line resistant to PLX4032 (designated A375-R) as described above. We then conducted A375-R orthotopic xenograft study.

[23] = DMBA/TPA + PLX4032 20 mg/kg i.p. twice per week

CCCCS(=N)(=O)CCC(N)C(=O)O (stereo not shown) [BSO, buthionine sulfoximine]
cytotoxicity of blocker alone (MDA-MB-231 cells [1]): did not show any cytotoxicity

C=C1C(=O)OC2CC3=C[C@@H](C/C(C)=C/C(OC(=O)/C=C/c4cccc(OC)c4)[C@H]12)OC3=O (stereo partly shown) [DETD-39]
IC50 [2]: 3500 nM | IC50 [3]: 1600 to 9900 nM and 1600 to 3500 nM | IC50 [4]: 110 nM | IC50 on cell viability, M10 (normal) [5]: some toxicity | IC50 ([5]; Homo sapiens, Epithelial cell): 3700 nM | IC60 on MDA-MB-231 cells ([6]; 24 h): 3790 nM | IC50 ([6]; MDA-MB-231, 24 h, read-out: IC50 on cell viability, MDA-MB-231 (ER−, PR−, Her2−)): 1900 nM | IC50 ([6]; MDA-MB-231, Table 5, 24 h, read-out: IC50 viability MDA-MB-231 (Breast)): 1900 nM | IC50 [7]: 3500 nM | IC50 (PC3 (Prostate)): 2600 nM | combination effect with PTX (isobologram, combination index) (MDA-MB-231 cells [8]): acted synergistically | fold decrease in IC50 of NO production vs DET [9]: 3 fold | IC50 ([9]; Mus musculus, LPS-stimulated RAW264.7, nitrite 24 h after LPS): 1000 nM | IC50 [10]: 290 nM | IC50 (A2058 (BRAF mutation)): 2400 nM | IC50 [11]: 140 nM | IC50 (B16-F10 (NRAS mutation); 24 h, read-out: IC50 on cell viability, B16-F10 (NRAS mutation)): 1700 nM | IC50 (B16-F10 (NRAS mutation); Table 5, 24 h, read-out: IC50 viability B16-F10 (mouse) (Skin)): 1700 nM | IC50 [12]: 110 nM | IC50 (A375 (BRAF mutation); A-375, 24 h, 24 h, read-out: IC50 on cell viability, A375 (BRAF mutation)): 1600 nM | IC50 [13]: 150 nM | IC50 ([14]; MCF7, 24 h, read-out: IC50 on cell viability, MCF-7 (ER+, Her2−)): 2100 nM | IC50 ([14]; MCF7, Table 5, 24 h, read-out: IC50 viability MCF-7 (Breast)): 2400 nM | IC50 ([15]; 24 h, read-out: IC50 on cell viability, TS/A (ER+, Her2−)): 800 nM | IC50 ([15]; Table 5, 24 h, read-out: IC50 viability TS/A (mouse) (Breast)): 800 nM | IC50 (U937 lymphoma line): 100 nM | IC50 (HTB-68 (NRAS mutation)): 3200 nM | IC50 [16]: 9000 nM | IC50 [17]: 100 nM | IC50 [18]: 480 nM

CCCS(=O)(=O)Nc1ccc(F)c(C(=O)c2c[nH]c3ncc(-c4ccc(Cl)cc4)cc23)c1F [PLX4032, Vemurafenib]
reduction of tumor mass vs tumor control [19]: 71.9% | start of papillomas formation ([20]; DMBA-TPA treated mice + PLX4032, without PLX4032 week 6 to 7): 3 to 4 weeks | papillomas size in average [20, 23]: 77.6 mm^3 | total papillomas number [20, 23]: 25.6 | fold less sensitive, A375-R vs parental A375 [21]: more than 100 fold | IC50 ([21]; Homo sapiens, MTT): 8300 nM | IC50 (A375 (BRAF mutation); A-375, 72 h, 72 h, read-out: IC50 on A375 cells): 70 nM | tumor growth rate and size relative to control group (100%) [22]: 98%

O=C(O)c1cc(/N=N/c2ccc(S(=O)(=O)Nc3ccccn3)cc2)ccc1O [sulfasalazine]
cytotoxicity of blocker alone (MDA-MB-231 cells [1]): did not show any cytotoxicity
